Experiment [1] has as its target human recombinant PLK4 (Homo sapiens (Human), UniProt O00444). Put plainly: PLK4 Biochemical Assay (ADP-Glo). The settings on record: 0.5 nM PLK4, 8.0 µM ATP, 4.7 µM MBP, 6 hours at RT. The method in brief: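 Luminescent ADP-Glo detection quantified ADP production, with ATP depletion for 40 min and detection for 30 min at room temperature. Compound and PLK4 (1.0 nM stock addition) were preincubated 15 min in HEPES pH 7.5 buffer containing MgCl2, EGTA, DTT, Brij-35 and BSA. IC50 values were obtained by four-parameter nonlinear regression.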
On the technique in general: ADP-Glo turns the ADP formed in a reaction into a luminescent signal.

Experiment [2] concerns the target human recombinant Aurora B (Homo sapiens (Human), UniProt Q96GD4). The experiment in a line: Aurora B Kinase Biochemical Assay (ADP-Glo). The settings on record: ratio of Aurora B IC50 to PLK4 IC50 (selectivity). The method in brief: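 IC50 derived by four-parameter nonlinear fit of ADP-Glo luminescence (ADP produced). Compound was preincubated 15 min at RT with 20 nM recombinant human Aurora B, in 50 mM HEPES pH 7.5, 10 mM MgCl2, 1 mM EGTA, 1 mM DTT, 0.01% Brij-35/BSA.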

Experiment [3] has as its target human recombinant Aurora A (Homo sapiens (Human), UniProt O14965). The experiment in a line: Aurora A Kinase Biochemical Assay (ADP-Glo). The settings on record: ratio of Aurora A IC50 to PLK4 IC50 (selectivity).

Molecules are shown by their SMILES.

As usually defined, the IC50 is the point on the concentration scale where inhibition reaches its midpoint.

human recombinant Aurora A, sequence (O14965 whole entry): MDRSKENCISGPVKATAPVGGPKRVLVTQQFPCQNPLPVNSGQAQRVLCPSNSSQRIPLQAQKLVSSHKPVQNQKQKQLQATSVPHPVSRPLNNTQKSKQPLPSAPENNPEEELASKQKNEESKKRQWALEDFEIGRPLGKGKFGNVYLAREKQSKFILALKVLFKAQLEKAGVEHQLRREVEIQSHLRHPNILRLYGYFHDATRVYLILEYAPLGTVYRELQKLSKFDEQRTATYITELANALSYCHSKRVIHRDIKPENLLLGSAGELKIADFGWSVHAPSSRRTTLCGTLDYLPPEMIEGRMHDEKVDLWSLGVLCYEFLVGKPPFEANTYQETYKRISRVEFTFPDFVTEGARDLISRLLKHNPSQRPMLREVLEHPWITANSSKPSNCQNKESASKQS
human recombinant Aurora B, sequence (Q96GD4 whole entry): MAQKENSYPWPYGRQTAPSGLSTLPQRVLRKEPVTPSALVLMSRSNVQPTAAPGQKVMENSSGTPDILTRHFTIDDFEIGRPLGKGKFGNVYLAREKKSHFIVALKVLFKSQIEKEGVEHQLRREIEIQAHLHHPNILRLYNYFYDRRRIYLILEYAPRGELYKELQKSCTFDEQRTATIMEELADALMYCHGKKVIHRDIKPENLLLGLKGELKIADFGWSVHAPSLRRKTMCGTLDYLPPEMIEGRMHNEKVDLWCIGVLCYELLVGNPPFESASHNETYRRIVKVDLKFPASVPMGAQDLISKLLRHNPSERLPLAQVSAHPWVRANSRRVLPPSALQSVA
human recombinant PLK4, sequence (O00444 whole entry): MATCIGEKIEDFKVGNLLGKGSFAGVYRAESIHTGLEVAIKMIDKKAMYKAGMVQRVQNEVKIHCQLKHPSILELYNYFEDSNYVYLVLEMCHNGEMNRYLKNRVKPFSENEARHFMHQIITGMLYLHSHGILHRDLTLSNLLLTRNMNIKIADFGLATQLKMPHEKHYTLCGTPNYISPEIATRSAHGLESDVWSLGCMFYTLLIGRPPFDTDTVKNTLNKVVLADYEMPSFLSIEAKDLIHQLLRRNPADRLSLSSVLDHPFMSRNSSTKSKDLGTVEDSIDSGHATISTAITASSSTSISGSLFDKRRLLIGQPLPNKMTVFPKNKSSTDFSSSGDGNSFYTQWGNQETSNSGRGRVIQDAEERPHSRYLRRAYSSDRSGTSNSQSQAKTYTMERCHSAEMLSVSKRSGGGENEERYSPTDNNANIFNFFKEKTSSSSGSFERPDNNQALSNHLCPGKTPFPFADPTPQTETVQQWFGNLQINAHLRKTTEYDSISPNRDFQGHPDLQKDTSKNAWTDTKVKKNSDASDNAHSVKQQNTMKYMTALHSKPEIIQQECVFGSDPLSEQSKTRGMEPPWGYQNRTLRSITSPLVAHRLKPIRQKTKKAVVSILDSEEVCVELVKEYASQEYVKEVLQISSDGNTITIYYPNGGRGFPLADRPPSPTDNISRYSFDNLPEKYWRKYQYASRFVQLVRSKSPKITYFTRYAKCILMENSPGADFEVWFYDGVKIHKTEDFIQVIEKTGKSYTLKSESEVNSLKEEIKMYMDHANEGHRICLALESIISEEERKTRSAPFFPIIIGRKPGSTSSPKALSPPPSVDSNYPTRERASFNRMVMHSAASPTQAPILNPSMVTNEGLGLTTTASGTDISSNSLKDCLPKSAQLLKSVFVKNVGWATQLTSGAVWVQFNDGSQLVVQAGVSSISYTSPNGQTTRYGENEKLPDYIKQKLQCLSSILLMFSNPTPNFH

Turning to `COc1ccc2c(c1)[C@]1(C[C@H]1c1ccc3c(Nc4nc(C5COC5)ncc4OC(F)F)n[nH]c3c1)C(=O)N2` [Example 141, (1R,2S)-2-(3-{[5-(difluoromethoxy)-2-(oxetan-3-yl)pyrimidin-4-yl]amino}-1H-indazol-6-yl)-5′-methoxyspiro[cyclopropane-1,3′-indol]-2′(1′H)-one], the IC50 in experiment [1] amounted to 13.1 nM. For the same compound, the “[Aurora B IC50 (nM)]/[PLK4 IC50 (nM)]” value in experiment [2] was determined as 891.0891. Moreover, the “[Aurora A IC50 (nM)]/[PLK4 IC50 (nM)]” value in experiment [3] was 327.4181.
As for `COc1cnc(C)nc1Nc1n[nH]c2c(F)c([C@@H]3C[C@@]34C(=O)Nc3ccc(F)cc34)ccc12` [Example 142, (1R,2R)-5′-fluoro-2-{7-fluoro-3-[(5-methoxy-2-methylpyrimidin-4-yl)amino]-1H-indazol-6-yl}spiro[cyclopropane-1,3′-indol]-2′(1′H)-one], the IC50 in experiment [1] amounted to 21.5 nM. For the same compound, in experiment [2], the “[Aurora B IC50 (nM)]/[PLK4 IC50 (nM)]” value was determined as 26.308. For the same compound, the “[Aurora A IC50 (nM)]/[PLK4 IC50 (nM)]” value in experiment [3] was found to be 13.818.
Taken in the same sequence, the figures for `Cc1ncc(OC(F)F)c(Nc2n[nH]c3c(F)c([C@@H]4C[C@@]45C(=O)Nc4ccc(F)cc45)ccc23)n1` [Example 143, (1R,2R)-2-(3-{[5-(difluoromethoxy)-2-methylpyrimidin-4-yl]amino}-7-fluoro-1H-indazol-6-yl)-5′-fluorospiro[cyclopropane-1,3′-indol]-2′(1′H)-one] were 84.7 nM, 40.607 and 14.621.
Taken in the same sequence, the figures for `COc1ccc2c(c1)[C@]1(C[C@H]1c1ccc3c(Nc4cc(C(C)C)nc(C)n4)n[nH]c3c1)C(=O)N2` [Example 151, (1R,2S)-5′-methoxy-2-(3-{[2-methyl-6-(propan-2-yl)pyrimidin-4-yl]amino}-1H-indazol-6-yl)spiro[cyclopropane-1,3′-indol]-2′(1′H)-one] were 9.74 nM, 96.3153 and 61.2440.
Taken in the same sequence, the figures for `CCc1cnc(C)nc1Nc1n[nH]c2cc([C@@H]3C[C@@]34C(=O)Nc3ccc(OC)cc34)ccc12` [Example 152, (1R,2S)-2-{3-[(5-ethyl-2-methylpyrimidin-4-yl)amino]-1H-indazol-6-yl}-5′-methoxyspiro[cyclopropane-1,3′-indol]-2′(1′H)-one] were 7.16 nM, 107.8116 and 502.7949.
Take `COc1ccc2c(c1)[C@]1(C[C@H]1c1ccc3c(Nc4ncc(C(F)(F)F)cc4OC)n[nH]c3c1)C(=O)N2` [Example 158, (1R,2S)-5′-methoxy-2-(3-{[3-methoxy-5-(trifluoromethyl)pyridin-2-yl]amino}-1H-indazol-6-yl)spiro[cyclopropane-1,3′-indol]-2′(1′H)-one]: the IC50 in experiment [1] was determined as 8.59 nM. Further, in experiment [2], the “[Aurora B IC50 (nM)]/[PLK4 IC50 (nM)]” value was determined as 51.7286. Besides, in experiment [3], the “[Aurora A IC50 (nM)]/[PLK4 IC50 (nM)]” value came to 704.9238.
With `COc1ccc2c(c1)[C@]1(C[C@H]1c1ccc3c(Nc4nc(C)ncc4SC)n[nH]c3c1)C(=O)N2` [Example 162, (1R,2S)-5′-methoxy-2-(3-{[2-methyl-5-(methylsulfanyl)pyrimidin-4-yl]amino}-1H-indazol-6-yl)spiro[cyclopropane-1,3′-indol]-2′(1′H)-one], the IC50 in experiment [1] came to 8.39 nM. In experiment [2], the “[Aurora B IC50 (nM)]/[PLK4 IC50 (nM)]” value was determined as 105.2895. In addition, the “[Aurora A IC50 (nM)]/[PLK4 IC50 (nM)]” value in experiment [3] came to 648.6776.
In the case of `COc1ccc2c(c1)[C@]1(C[C@H]1c1ccc3c(Nc4cc(C(=O)N(C)C)cnc4OC)n[nH]c3c1)C(=O)N2` [Example 181, 6-methoxy-5-({6-[(1R,2S)-5′-methoxy-2′-oxo-1′,2′-dihydrospiro[cyclopropane-1,3′-indol]-2-yl]-1H-indazol-3-yl}amino)-N,N-dimethylpyridine-3-carboxamide], the IC50 in experiment [1] is 7.58 nM. Besides, in experiment [2], the “[Aurora B IC50 (nM)]/[PLK4 IC50 (nM)]” value came to 3693.2418. Moreover, the “[Aurora A IC50 (nM)]/[PLK4 IC50 (nM)]” value in experiment [3] was 2415.5227.
For the compound `COc1ccc2c(c1)[C@]1(C[C@H]1c1ccc3c(Nc4nc(N(C)C)ncc4C)n[nH]c3c1)C(=O)N2` [Example 182, (1R,2S)-2-(3-{[2-(dimethylamino)-5-methylpyrimidin-4-yl]amino}-1H-indazol-6-yl)-5′-methoxyspiro[cyclopropane-1,3′-indol]-2′(1′H)-one], in experiment [1], the IC50 amounted to 4.45 nM. The “[Aurora B IC50 (nM)]/[PLK4 IC50 (nM)]” value in experiment [2] was 198.8774. Also, in experiment [3], the “[Aurora A IC50 (nM)]/[PLK4 IC50 (nM)]” value was found to be 53.6821.
In the same order, the values of `COc1ccc2c(c1)[C@]1(C[C@H]1c1ccc3c(Nc4cc(F)c(C(=O)N(C)C)cc4OC)n[nH]c3c1)C(=O)N2` [Example 206, 2-fluoro-5-methoxy-4-({6-[(1R,2S)-5′-methoxy-2′-oxo-1’,2′-dihydrospiro[cyclopropane-1,3′-indol]-2-yl]-1H-indazol-3-yl}amino)-N,N-dimethylbenzamide] are 0.806 nM, 80.2233 and 618.8586.
Taken in the same sequence, the figures for `COc1ccc2c(c1)[C@]1(C[C@H]1c1ccc3c(Nc4cc(F)c(C(=O)N5CCOCC5)cc4OC)n[nH]c3c1)C(=O)N2` [Example 207, (1R,2S)-2-{3-[5-fluoro-2-methoxy-4-(morpholine-4-carbonyl)anilino]-1H-indazol-6-yl}-5′-methoxyspiro[cyclopropane-1,3′-indol]-2′(1′H)-one] were 0.952 nM, 111.6597 and 497.3739.
Regarding `COc1ccc2c(c1)[C@]1(C[C@H]1c1ccc3c(Nc4cc(N5CCCC5=O)cnc4OC)n[nH]c3c1)C(=O)N2` [Example 220, (1R,2S)-5′-methoxy-2-(3-{[2-methoxy-5-(2-oxopyrrolidin-1-yl)pyridin-3-yl]amino}-1H-indazol-6-yl)spiro[cyclopropane-1,3′-indol]-2′(1′H)-one], the IC50 in experiment [1] came out at 6.01 nM. Further, the “[Aurora B IC50 (nM)]/[PLK4 IC50 (nM)]” value in experiment [2] is 498.7527. Besides, the “[Aurora A IC50 (nM)]/[PLK4 IC50 (nM)]” value in experiment [3] is 1042.4081.
Taken in the same sequence, the figures for `COc1ccc2c(c1)[C@]1(C[C@H]1c1ccc3c(Nc4ncc(P(C)(C)=O)nc4OC)n[nH]c3c1)C(=O)N2` [Example 229, (1R,2S)-2-(3-{[5-(dimethylphosphoryl)-3-methoxypyrazin-2-yl]amino}-1H-indazol-6-yl)-5′-methoxyspiro[cyclopropane-1,3′-indol]-2′(1′H)-one] were 7.85 nM, 130.8780 and 1669.4278.
In the same order, the values of `COc1ccc2c(c1)[C@]1(C[C@H]1c1ccc3c(Nc4ncc(C(=O)N5CC(OC)C5)cc4OC)n[nH]c3c1)C(=O)N2` [Example 235, (1R,2S)-5′-methoxy-2-(3-{[3-methoxy-5-(3-methoxyazetidine-1-carbonyl)pyridm-2-yl]amino}-1H-indazol-6-yl)spiro[cyclopropane-1,3′-indol]-2′(1′H)-one] are 2.17 nM, 260.3503 and 2053.4808.
In the same order, the values of `COc1ccc2c(c1)[C@]1(C[C@H]1c1ccc3c(Nc4ncc(C(=O)N(C)C)nc4OC)n[nH]c3c1)C(=O)N2` [Example 236, 6-methoxy-5-({6-[(1R,2S)-5′-methoxy-2′-oxo-1′,2′-dihydrospiro[cyclopropane-1,3′-indol]-2-yl]-1H-indazol-3-yl}amino)-N,N-dimethylpyrazine-2-carboxamide] are 2.26 nM, 114.8983 and 949.6021.

Values taken from patent US20230365537A1, “POLO LIKE KINASE 4 INHIBITORS” (ORIC Pharmaceuticals, Inc., priority 2021, published 2023).
